The nature of data set [1]: Solubility of the drug substance. The note with it: qualitative statement. Type of data set: physicochemical. The source says: Due to its diversified pharmacological properties, Compound A is useful in treating, preventing, and/or managing various diseases or disorders.
The test system of data set [2] is PDE4 enzyme from U937 human monocytic cells. Kind of data set: Enzyme assay using purified PDE4 enzyme. Type of data set: biochemical. The source says: Cyclopropane carboxylic acid {2-[(1S)-1-(3-ethoxy-4-methoxy-phenyl)-2-methanesulfonyl-ethyl]-3-oxo-2,3-dihydro-1H-isoindol-4-yl}-amide (“Compound A”) is a novel compound with anti-inflammatory activity in clinical development for the treatment of a variety of chronic inflammatory conditions. Pharmacologically, Compound A blocks the degradation of cyclic adenosine monophosphate (cAMP) via inhibition of the phosphodiesterase type IV (PDE4) enzyme, resulting in an increase in cAMP in PDE4-expressing cells including monocytes, T cells, and neutrophils. Enzyme assay data using purified PDE4 enzyme from U937 human monocytic cells indicate that Compound A has a PDE4 IC50 of 100 nM (50 ng/mL). Compound A and methods for its synthesis are described, e.g., in U.S. Patent Publication No. 2010/0129363, the disclosure of which is hereby incorporated by reference in its entirety. Compound A may also be prepared according to the process described in U.S. Patent Publication No. 2010/0168475, the disclosure of which is hereby incorporated in its entirety.

Each structure is given as a SMILES string.

One may read the IC50 as the concentration that gives 50% inhibition. A low value points to greater potency. In the case of `CCOc1cc([C@@H](CS(C)(=O)=O)N2Cc3cccc(NC(=O)C4CC4)c3C2=O)ccc1OC` [Compound A, cyclopropanecarboxylic acid {2-[(1S)-1-(3-ethoxy-4-methoxy-phenyl)-2-methanesulfonyl-ethyl]-3-oxo-2,3-dihydro-1H-isoindol-4-yl}-amide], in data set [1], the Solubility entry is reported as “poorly soluble”. Moreover, half-maximal inhibition in data set [2] (IC50) was put at 0.1 µM. The “PDE4 IC50” value in data set [2] (same value in mass units) was found to be 0.05 µg/mL.

(Values after US9884042B2, “Formulations of cyclopropanecarboxylic acid {2-[(1S)-1-(3-ethoxy-4-methoxy-phenyl)-2-methanesulfonyl-ethyl]-3-oxo-2,3-dihydro-1H-isoindol-4-yl}-amide” (Celgene Corporation, priority 2011, dated 2018).)
